Legend:
HepG2 cells [1] = test: Affymetrix HG U95Av2 microarray gene expression analysis; format: cell-based, human; settings: 1 µM hyperforin, 24 h
Procedure: (§1) HepG2 cells (human hepatocellular carcinoma, German Collection of Microorganisms and Cell Cultures, DSMZ, Braunschweig, Germany) were grown in Dulbecco's Modified Eagle Medium containing 1 g/l D-glucose and 5% fetal bovine serum with 5% CO2 at 37°C. Cells were seeded in 6-well dishes and grown to confluence. Content of 1 Esbericum™ capsule (total hypericin […], Schaper & Bruemmer, Salzgitter, Germany) was extracted with 1 ml ethanol. Cells were treated with either this extract (final concentration 0.1% (v/v)), or 1 µM hyperforin (Calbiochem, Schwalbach, Germany), or 0.1 % ethanol (controls) for 24 h. Three independent experiments were performed.
(§2) Cells were washed twice with phosphate buffered saline, harvested in lysis buffer (Qiagen, Hilden, Germany) with a rubber-policeman and homogenised by centrifugation through a Qiashredder (Qiagen, Hilden, Germany). Preparation of total RNA was performed using a Qiagen RNeasy Mini Kit according to the manufacturer's instructions. RNA concentration was determined photometrically (Uvicon photometer, Kontron). RNA was either used immediately for cDNA synthesis or stored at -80°C.
Expression analysis was performed with Affymetrix HG U95Av2 microarray (Affymetrix, Santa Clara, CA). Synthesis of biotin-labelled cRNA and hybridisation were carried out following the Affymetrix protocol. Results were exported to Excei for analysis.

HepG2 cells [2] = test: Real-time RT-PCR gene expression analysis; format: cell-based, human; settings: 1 µM hyperforin, 24 h, vs. control, geometric mean of three experiments
Procedure: as §1, §2
5 µg RNA was reverse transcribed in a total volume of 20 µl containing 200 U SuperScript™ II RT and 1x reaction buffer (Invitrogen, Karlsruhe, Germany), 500 ng pd(T)12-18 (Amersham Pharmacia Biotech, Freiburg, Germany) and 125 pmol/µl of each dNTP at 42°C for 1 h. Real-time PCR was performed with QuantiTect™ SYBR® Green PCR Kit (Qiagen, Hilden, Germany) according to the manufacturer's instructions. The reaction was carried out in a LightCycler (Roche, Mannheim, Germany), version 5.32, and analysed using the Second Derivative Maximum method.

[3] = vs. control, geometric mean of three experiments

Hyperforin
differentially regulated sequences that were upregulated (HepG2 cells [1]): 120 sequences
sequences identified as differentially regulated (p<0.05) (HepG2 cells [1]): 201 sequences
Fold change of ALDOA transcript, Array (HepG2 cells [1]; [3]): 1.41
Fold change of ENO2 transcript, Array (HepG2 cells [1]; [3]): 2.75
Fold change of FDPS transcript, Array (HepG2 cells [1]; [3]): 0.53
Fold change of IGFBP3 transcript, Array (HepG2 cells [1]; [3]): 8.79
Fold change of LDHA transcript, Array (HepG2 cells [1]; [3]): 1.36
Fold change of LDHB transcript, Array (HepG2 cells [1]; [3]): 1.42
Fold change of MVD transcript, Array (HepG2 cells [1]; [3]): 0.26
Fold change of PCK2 transcript, Array (HepG2 cells [1]; [3]): 0.43
Fold change of PFKFB3 transcript, Array (HepG2 cells [1]; [3]): 1.83
Fold change of PGK1 transcript, Array (HepG2 cells [1]; [3]): 1.50
Fold change of PKM2 transcript, Array (HepG2 cells [1]; [3]): 1.40
Fold change of SLC2A1 transcript, Array (HepG2 cells [1]; [3]): 1.74
Fold change of SLC2A3 transcript, Array (HepG2 cells [1]; [3]): 3.57
Fold change of SLC25A8 / UCP2 transcript, Array (HepG2 cells [1]; [3]): 0.54
Fold change of TM7SF2 transcript, Array (HepG2 cells [1]; [3]): 0.52
Fold change of ALDOA transcript, RT-PCR (HepG2 cells [2]): 1.42
Fold change of FDPS transcript, RT-PCR (HepG2 cells [2]): 0.49
Fold change of IGFBP3 transcript, RT-PCR (HepG2 cells [2]): 8.29
Fold change of MVD transcript, RT-PCR (HepG2 cells [2]): 0.56
Fold change of PCK2 transcript, RT-PCR (HepG2 cells [2]): 0.49
Fold change of SLC2A1 transcript, RT-PCR (HepG2 cells [2]): 1.90
Fold change of SLC2A3 transcript, RT-PCR (HepG2 cells [2]): 2.84
